Results: patent US12685983B2, “Benefit agent delivery system” (ITC Limited, priority 2020, dated 2026)
Where two headings read alike, the source gives them in different places.

Assays:
[1] = GC-head space: effect of enablers on the encapsulation of menthol by PVP; format: physicochemical; conditions: for ability of enabler to encapsulate menthol: GC-Head space against control; for ability of enabler to encapsulate menthol / GC-HS area Menthol: with PVP; for GC-HS area (% of control sample): menthol, control without PVP
[2] = GC-head space: effect of enablers on the encapsulation of menthol and limonene combination by PVP; format: physicochemical; conditions: for GC-HS area (% of control sample) Limonene / GC-HS area (% of control sample) Menthol / GC-HS area Limonene / GC-HS area Menthol: menthol + limonene with PVP
[3] = UV-vis spectroscopy of enabler interaction with PVP (absorbance at 236 nm); format: physicochemical
[4] = cited from earlier work
[5] = GC head space of benefit agents in the presence of PVP and BHT; format: physicochemical

| Structure (SMILES) | GC-HS area Menthol ([1]; enabler concentration 0.05%) | GC-HS area Menthol ([1]; enabler concentration 0.1%) | GC-HS area (% of control sample) ([1]; enabler 0.05%) | GC-HS area (% of control sample) ([1]; enabler 0.1%) | GC-HS area (% of control sample) Limonene ([2]; enabler 0.05%) | GC-HS area (% of control sample) Menthol ([2]; enabler 0.05%) | GC-HS area Limonene ([2]; enabler 0.05%) | GC-HS area Menthol ([2]; enabler 0.05%) | GC-HS area (% of control sample) Limonene ([2]; enabler 0.1%) | GC-HS area (% of control sample) Menthol ([2]; enabler 0.1%) | GC-HS area Limonene ([2]; enabler 0.1%) | GC-HS area Menthol ([2]; enabler 0.1%) | GC-HS area (% of control sample) Limonene ([2]; enabler 0.5%) | GC-HS area (% of control sample) Menthol ([2]; enabler 0.5%) | GC-HS area Limonene ([2]; enabler 0.5%) | GC-HS area Menthol ([2]; enabler 0.5%) | LogP value [4] | also measured |
| --- | --- | --- | --- | --- | --- | --- | --- | --- | --- | --- | --- | --- | --- | --- | --- | --- | --- | --- |
| CC(=O)O [Acetic acid] | 708 | 1030 | 0.94 % of control sample | 1.37 % of control sample | 91.77 % of control sample | 0.50 % of control sample | 1860568 | 105 | 112.66 % of control sample | 0.82 % of control sample | 2096101 | 174 | 97.95 % of control sample | 1.89 % of control sample | 2053175 | 399 | – | ability of enabler to encapsulate menthol [1]: effectively encapsulate menthol; GC-HS area Menthol ([1]; enabler concentration 0.5%): 925; GC-HS area (% of control sample) ([1]; enabler 0.5%): 1.23 % of control sample |
| CC(C)=O [Acetone] | 541 | 179 | 0.72 % of control sample | 0.24 % of control sample | 88.91 % of control sample | 1.04 % of control sample | 1825472 | 220 | 103.37 % of control sample | 1.74 % of control sample | 1886916 | 369 | 106.24 % of control sample | 4.21 % of control sample | 2004605 | 891 | – | ability of enabler to encapsulate menthol [1]: effectively encapsulate menthol; GC-HS area Menthol ([1]; enabler concentration 0.5%): 199; GC-HS area (% of control sample) ([1]; enabler 0.5%): 0.27 % of control sample |
| Cc1cc(C(C)(C)C)c(O)c(C(C)(C)C)c1 [BHT, Butylated hydroxy toluene] | 10608 | 10773 | 14.14 % of control sample | 14.36 % of control sample | 108.95 % of control sample | 23.30 % of control sample | 1813235 | 4929 | 102.91 % of control sample | 30.48 % of control sample | 1866057 | 6449 | 108.30 % of control sample | 58.28 % of control sample | 2020945 | 12330 | – | Absorbance ([3]; 236 nm, enabler 10 ppm with PVP in 95% v/v ethanol): 0.155; interaction of enabler with PVP ([3]; UV-vis, 10 ppm): comparatively lower activities; GC-HS area Menthol ([1]; enabler concentration 0.5%): 8798; GC-HS area (% of control sample) ([1]; enabler 0.5%): 11.73 % of control sample |
| CCCCCCCCCCCCCCCCO [Cetyl alcohol, reference compound] | – | – | – | – | – | – | – | – | – | – | – | – | – | – | – | – | 7.25 | interaction of the enabler with the polymer ([3]; UV-vis, concentration not given): No interaction |
| CCCCCCCCCCCCN [Dodecyl amine] | – | – | – | – | – | – | – | – | – | – | – | – | – | – | – | – | 4.76 | – |
| CC1CCC(C(C)C)C(O)C1 (stereo not shown) [Menthol] | – | – | – | – | – | – | – | – | – | – | – | – | – | – | – | – | – | selectivity of encapsulation in menthol and limonene combination ([2]; PVP with enablers): preferentially encapsulated as against limonene |
| CCCCC(CC)COC(=O)C=Cc1ccc(OC)cc1 (stereo not shown) [Octyl methoxy cinnamate] | – | – | – | – | – | – | – | – | – | – | – | – | – | – | – | – | 5.8 | – |
| Oc1cc(Cl)ccc1Oc1ccc(Cl)cc1Cl [Triclosan] | 4977 | 3482 | 6.63 % of control sample | 4.64 % of control sample | 95.29 % of control sample | 3.59 % of control sample | 1925700 | 759 | 99.50 % of control sample | 1.30 % of control sample | 1916012 | 274 | 105.82 % of control sample | 3.98 % of control sample | 2027488 | 841 | – | Absorbance [3]: 0.961; interaction of enabler with PVP [3]: stronger interaction with PVP; ability of enabler to encapsulate menthol [1]: effectively encapsulate menthol; GC-HS area Menthol ([1]; enabler concentration 0.3%): 6103; GC-HS area (% of control sample) ([1]; enabler 0.3%): 8.14 % of control sample |
| CCCCCCCCCCN [decyl amine] | – | – | – | – | – | – | – | – | – | – | – | – | – | – | – | – | 1.92 | – |
| CCCCCCCCCCCC(=O)OC [methyl laurate] | – | – | – | – | – | – | – | – | – | – | – | – | – | – | – | – | 5.41 | – |
| CC1=CCC2CC1C2(C)C (stereo not drawn) [α-Pinene] | – | – | – | – | – | – | – | – | – | – | – | – | – | – | – | – | 4.83 | encapsulation by PVP in the presence of BHT as enabler [5]: not encapsulated |
